Reference: patent publication US9493411B2 (AbbVie Inc., priority 2013, dated 2016)

Columns and labels:
BRD4 (BDII_E352-M457) = target: T1, BRD4 (BDII_E352-M457) (Homo sapiens, UniProt O60885); assay: TR-FRET bromodomain binding assay, BRD4 second bromodomain; conditions: His-tagged BD2, Alexa647-labeled probe 30 nM; Ki calculated from IC50
T1 construct: made in house
Method: (§1) A time-resolved fluorescence resonance energy transfer (TR-FRET) assay was used to determine the affinities of compounds of the Examples listed in Table 1 for each bromodomain of BRD4. His-tagged first (BD1: amino acids K57-E168) and second (BD2: amino acids E352-E168) bromodomains of BRD4 were expressed and purified. An Alexa647-labeled BET-inhibitor was used as the fluorescent probe in the assay.
(§2) Compound dilution series were prepared in DMSO via a 3-fold serial dilution from 2.5 mM to 42 nM. Compounds were then diluted 6:100 in assay buffer (20 mM Sodium Phosphate, pH 6.0, 50 mM NaCl, 1 mM Ethylenediaminetetraacetic acid disodium salt dihydrate, 0.01% Triton X-100, 1 mM DL-Dithiothreitol) to yield 3× working solutions. Six microliters (μL) of the working solution was then transferred to white, low-volume assay plates (Costar #3673). A 1.5× assay mixture containing His-tagged bromodomain, Europium-conjugated anti-His antibody (Invitrogen PV5596) and the Alexa-647-conjugated probe molecule was also prepared. Twelve μL of this solution were added to the assay plate to reach a final volume of 18 μL. The final concentration of 1× assay buffer contains 2% DMSO, 50 μM-0.85 nM compound, 8 nM His-tagged bromodomain, 1 nM Europium-conjugated anti-His-tag antibody and 100 nM or 30 nM probe (for BDI or BDII, respectively). After a one-hour incubation at room temperature, TR-FRET ratios were determined using an Envision multilabel plate reader (Ex 340, Em […]).
(§3) TR-FRET data were normalized to the means of 24 no-compound controls (“high”) and 8 controls containing 1 μM un-labeled probe (“low”). Percent inhibition was plotted as a function of compound concentration and the data were fit with the 4 parameter logistic equation to obtain IC50s. Inhibition constants (Ki) were calculated from the IC50s, probe Kd and probe concentration. Typical Z′ values were between 0.65 and 0.75. The minimum significant ratio was determined to evaluate assay reproducibility (Eastwood et al., (2006) J Biomol Screen, 11: 253-261). The MSR was determined to be 2.03 for BDI and 1.93 for BDII, and a moving MSR (last six run MSR overtime) for both BDI and BDII was typically <3.

BRD4 (BDI_K57-E168) = target: T2, BRD4 (BDI_K57-E168) (Homo sapiens, UniProt O60885); assay: TR-FRET bromodomain binding assay, BRD4 first bromodomain; conditions: His-tagged BD1, Alexa647-labeled probe 100 nM; Ki calculated from IC50
T2 construct: BD1: amino acids K57-E168; made in house
Method: as §1, §2, §3

Row | Compound | Ki (BRD4 (BDII_E352-M457)) [µM] | Ki (BRD4 (BDI_K57-E168)) [µM]
1 | CCOC(=O)Cc1ccc(OCc2ccccc2)c(-c2cc(C(N)=O)c(C)[nH]2)c1 [Example 165, ethyl [4-(benzyloxy)-3-(4-carbamoyl-5-methyl-1H-pyrrol-2-yl)phenyl]acetate] | 7.49 | 0.595
2 | Cc1[nH]c(-c2ccccc2NCC2CC2)cc1C(N)=O [Example 26, 5-{2-[(cyclopropylmethyl)amino]phenyl}-2-methyl-1H-pyrrole-3-carboxamide] | 7.53 | 0.86
3 | Cc1noc(C)c1-c1ccc(-c2cc(C(=O)NO)c(C)[nH]2)cc1 [Example 95, 5-[4-(3,5-dimethyl-1,2-oxazol-4-yl)phenyl]-N-hydroxy-2-methyl-1H-pyrrole-3-carboxamide] | 5.62 | 5.07
4 | Cc1[nH]c(-c2ccccc2NCc2ccc(N)cc2)cc1C(N)=O [Example 52, 5-{2-[(4-aminobenzyl)amino]phenyl}-2-methyl-1H-pyrrole-3-carboxamide] | 16.4 | 3.08
5 | Cc1[nH]c(-c2ccc(-c3cccc(N4CCOCC4)c3)cc2)cc1C(N)=O [Example 105, 2-methyl-5-[3′-(morpholin-4-yl)biphenyl-4-yl]-1H-pyrrole-3-carboxamide] | 5.34 | 6.78
6 | Cc1[nH]c(-c2ccccc2Oc2ccc(C3CCCC3)cc2)cc1C(N)=O [Example 124, 5-[2-(4-cyclopentylphenoxy)phenyl]-2-methyl-1H-pyrrole-3-carboxamide] | 13.1 | 4.6
7 | COc1cc(-c2ccc(-c3cc(C(N)=O)c(C)[nH]3)cc2)cc(OC)c1OC [Example 99, 2-methyl-5-(3′,4′,5′-trimethoxybiphenyl-4-yl)-1H-pyrrole-3-carboxamide] | 2.32 | 2.3
8 | Cc1[nH]c(-c2ccccc2NCc2ccccc2Cl)cc1C(N)=O [Example 34, 5-{2-[(2-chlorobenzyl)amino]phenyl}-2-methyl-1H-pyrrole-3-carboxamide] | 3.45 | 1.4
9 | Cc1[nH]c(-c2ccc(-c3ccc(C(=O)N(C)C)cc3)cc2)cc1C(N)=O [Example 108, 5-[4′-(dimethylcarbamoyl)biphenyl-4-yl]-2-methyl-1H-pyrrole-3-carboxamide] | 4.49 | 11
10 | Cc1[nH]c(-c2cccc3[nH]cnc23)cc1C(N)=O [Example 163, 5-(1H-benzimidazol-4-yl)-2-methyl-1H-pyrrole-3-carboxamide] | 2.81 | 0.912
11 | Cc1[nH]c(-c2ccccc2NS(=O)(=O)CC(F)(F)F)cc1C(N)=O [Example 86, 2-methyl-5-(2-{[(2,2,2-trifluoroethyl)sulfonyl]amino}phenyl)-1H-pyrrole-3-carboxamide] | 2.6 | 3.03
12 | Cc1[nH]c(-c2ccccc2NCc2ccc(Cl)c(Cl)c2)cc1C(N)=O [Example 33, 5-{2-[(3,4-dichlorobenzyl)amino]phenyl}-2-methyl-1H-pyrrole-3-carboxamide] | 13.1 | 9.63
13 | Cc1[nH]c(-c2cccc(-c3ccccc3)c2)cc1C(N)=O [Example 150, 5-(biphenyl-3-yl)-2-methyl-1H-pyrrole-3-carboxamide] | 9.69 | 10.7
14 | Cc1[nH]c(-c2ccccc2NCC2CCCCC2)cc1C(N)=O [Example 36, 5-{2-[(cyclohexylmethyl)amino]phenyl}-2-methyl-1H-pyrrole-3-carboxamide] | 1.16 | 0.521
15 | Cc1[nH]c(-c2ccccc2Oc2ccccc2)cc1C(N)=O [Example 89, 2-methyl-5-(2-phenoxyphenyl)-1H-pyrrole-3-carboxamide] | 0.351 | 0.122
16 | Cc1[nH]c(-c2ccccc2Oc2cccc3c2CCCC3)cc1C(N)=O [Example 136, 2-methyl-5-[2-(5,6,7,8-tetrahydronaphthalen-1-yloxy)phenyl]-1H-pyrrole-3-carboxamide] | 1.98 | 0.564
17 | Cc1[nH]c(-c2ccccc2NCc2cccc(Cl)c2)cc1C(N)=O [Example 35, 5-{2-[(3-chlorobenzyl)amino]phenyl}-2-methyl-1H-pyrrole-3-carboxamide] | 3.26 | 2.7
18 | 2-methyl-5-[2-(pyridin-2-yloxy)phenyl]-1H-pyrrole-3-carboxamide [Example 131] | 22.2 | 9.4

Row | Compound | Ki (BRD4 (BDII_E352-M457)) [µM] | Ki (BRD4 (BDI_K57-E168)) [µM]
19 | Cc1[nH]c(-c2ccc([N+](=O)[O-])cc2)cc1C(N)=O [Example 7, 2-methyl-5-(4-nitrophenyl)-1H-pyrrole-3-carboxamide] | 6.89 | 1.63
20 | Cc1[nH]c(-c2ccccc2NC2CCc3ccccc3C2)cc1C(N)=O (stereo not shown) [Example 74, 2-methyl-5-[2-(1,2,3,4-tetrahydronaphthalen-2-ylamino)phenyl]-1H-pyrrole-3-carboxamide] | 1.65 | 0.526
21 | Cc1cc(CNc2ccccc2-c2cc(C(N)=O)c(C)[nH]2)oc1C [Example 20, 5-(2-{[(4,5-dimethylfuran-2-yl)methyl]amino}phenyl)-2-methyl-1H-pyrrole-3-carboxamide] | 3.29 | 1.19
22 | Cc1[nH]c(-c2ccccc2NS(=O)(=O)C2CCCCC2)cc1C(N)=O [Example 79, 5-{2-[(cyclohexylsulfonyl)amino]phenyl}-2-methyl-1H-pyrrole-3-carboxamide] | 2.65 | 0.904
23 | Cc1[nH]c(-c2ccc(-c3cnn(Cc4ccccc4)c3)cc2)cc1C(N)=O [Example 111, 5-[4-(1-benzyl-1H-pyrazol-4-yl)phenyl]-2-methyl-1H-pyrrole-3-carboxamide] | 5.74 | 6.9
24 | Cc1[nH]c(-c2cccc(-c3ccsc3)c2)cc1C(N)=O [Example 152, 2-methyl-5-[3-(thiophen-3-yl)phenyl]-1H-pyrrole-3-carboxamide] | 7.87 | 4.7
25 | Cc1[nH]c(-c2cccc(NS(C)(=O)=O)c2)cc1C(N)=O [Example 6, 2-methyl-5-{3-[(methylsulfonyl)amino]phenyl}-1H-pyrrole-3-carboxamide] | 5.01 | 3.16
26 | Cc1[nH]c(-c2ccc(-c3cccc(O)c3)cc2)cc1C(N)=O [Example 98, 5-(3′-hydroxybiphenyl-4-yl)-2-methyl-1H-pyrrole-3-carboxamide] | 7.01 | 11.3
27 | COC(=O)CNC(=O)c1cc(-c2ccc(-c3c(C)noc3C)cc2)[nH]c1C [Example 94, methyl N-({5-[4-(3,5-dimethyl-1,2-oxazol-4-yl)phenyl]-2-methyl-1H-pyrrol-3-yl}carbonyl)glycinate] | 21.5 | 4.82
28 | Cc1[nH]c(-c2ccccc2NCc2ccc(N(C)C)cc2)cc1C(N)=O [Example 37, 5-(2-{[4-(dimethylamino)benzyl]amino}phenyl)-2-methyl-1H-pyrrole-3-carboxamide] | 3.58 | 4.68
29 | Cc1[nH]c(-c2ccccc2N(Cc2cccs2)CC2CCCC2)cc1C(N)=O [Example 60, 5-{2-[(cyclopentylmethyl)(thiophen-2-ylmethyl)amino]phenyl}-2-methyl-1H-pyrrole-3-carboxamide] | 20.5 | 5.1
30 | Cc1[nH]c(-c2ccccc2Oc2cccc3ccccc23)cc1C(N)=O [Example 140, 2-methyl-5-[2-(naphthalen-1-yloxy)phenyl]-1H-pyrrole-3-carboxamide] | 1.3 | 0.607
31 | Cc1[nH]c(-c2cc(CC(=O)O)ccc2OCc2ccccc2)cc1C(N)=O [Example 166, [4-(benzyloxy)-3-(4-carbamoyl-5-methyl-1H-pyrrol-2-yl)phenyl]acetic acid] | 10.5 | 0.63
32 | Cc1[nH]c(-c2ccc(-c3ccc4ncccc4c3)cc2)cc1C(N)=O [Example 113, 2-methyl-5-[4-(quinolin-6-yl)phenyl]-1H-pyrrole-3-carboxamide] | 4.22 | 4.64
33 | Cc1ccc(CNc2ccccc2-c2cc(C(N)=O)c(C)[nH]2)cc1 [Example 29, 2-methyl-5-{2-[(4-methylbenzyl)amino]phenyl}-1H-pyrrole-3-carboxamide] | 4.41 | 2.77
34 | Cc1n[nH]c(C)c1-c1ccc(-c2cc(C(N)=O)c(C)[nH]2)cc1 [Example 112, 5-[4-(3,5-dimethyl-1H-pyrazol-4-yl)phenyl]-2-methyl-1H-pyrrole-3-carboxamide] | 4.31 | 5.43
35 | Cc1[nH]c(-c2ccc(-c3ccncc3)cc2)cc1C(N)=O [Example 102, 2-methyl-5-[4-(pyridin-4-yl)phenyl]-1H-pyrrole-3-carboxamide] | 4.37 | 5.68
